The values that follow come from patent publication US20160331798A1, “NATURAL PRODUCT INHIBITORS OF 3DG” (Dynamis Pharmaceuticals, Inc., priority 2008, published 2016).

Structures can show the parent of a compound that is named as a salt.

The nature of assay [1]: 3DG inactivation assay (3DG binding assay). Conditions: for 3DG inactivating activity: summary of Table 3. How it is done: The following assay was used to determine inactivation of 3DG by various natural products and chemicals.
• 1. Dilute the samples with Reagent 1 to a volume of 1.9 ml and add 100 uL Reagent 6 to a total of 2 mL. • 2. Take 600 μL from each solution before incubation (as 0 day sample) • 3. Let sit for 24 hours and 72 hours at 37° and remove 600 μL for samples on day 1 and day 3) • 4.

For assay [2] the following is noted: in vivo; cited from earlier work.
The conditions of assay [3]: animal models; cited from earlier work.

For `N=C(N)NCCC[C@H](N)C(=O)O` [Arginine], the “3DG Conc” value in assay [1] (2 mM, 1 day, 37°) stood at 15.71 µM; in assay [1] (2 mM, 3 days, 37°), 13.14 µM; in assay [1] (6 mM, 1 day, 37°), 13.66 µM; in assay [1] (6 mM, 3 days, 37°) it was 8.50 µM; in assay [1] (12 mM, 1 day, 37°), 12.24 µM; in assay [1] (12 mM, 3 days, 37°) it was 4.98 µM. The 3DG inactivating activity entry in assay [1] is given as “most amount of 3DG inactivating activity”.
As to `CC(C)(CO)[C@@H](O)C(=O)NCCCO` [Panthenol], the “3DG Conc” value turned out to be 19.54 µM in assay [1] (5 mM, 0 day); 18.10 µM in assay [1] (5 mM, 1 day, 37°); 19.51 µM in assay [1] (5 mM, 3 days, 37°); 18.08 µM in assay [1] (15 mM, 0 day); 17.74 µM in assay [1] (15 mM, 1 day, 37°); 16.84 µM in assay [1] (15 mM, 3 days, 37°). For the same compound, the “3DG Conc” value in assay [1] (30 mM, 0 day) turned out to be 18.91 µM; in assay [1] (30 mM, 1 day, 37°) it was 17.67 µM; in assay [1] (30 mM, 3 days, 37°) it was 17.63 µM.
With `N[C@@H](CCCCNC[C@H](O)[C@@H](O)[C@@H](O)[C@H](O)CO)C(=O)O` [galactitollysine], the “urinary or plasma 3DG” value in assay [2] was “reduced”.
For `Cc1ncc(COP(=O)(O)O)c(C=O)c1O` [Pyridoxal-5′-Phosphate], the “3DG Conc” value in assay [1] (2 mM, 1 day, 37°) is 13.71 µM; in assay [1] (2 mM, 3 days, 37°), 12.29 µM; in assay [1] (6 mM, 1 day, 37°), 13.00 µM; in assay [1] (6 mM, 3 days, 37°), 8.12 µM; in assay [1] (12 mM, 1 day, 37°), 12.20 µM; in assay [1] (12 mM, 3 days, 37°) it was 7.14 µM. Also, the 3DG inactivating activity result in assay [1] is “most amount of 3DG inactivating activity”.
`Cl.N[C@H]1C(O)O[C@H](CO)[C@@H](O)[C@@H]1O` (stereo partly drawn) [Glucosamine HCl, D-Glucosamine HCl]: the “3DG Conc” value in assay [1] (5 mM, 0 day) is 25.15 µM; in assay [1] (5 mM, 1 day, 37°) it was 43.42 µM; in assay [1] (5 mM, 3 days, 37°) it was 82.33 µM; in assay [1] (15 mM, 0 day), 36.00 µM; in assay [1] (15 mM, 1 day, 37°) it was 122.14 µM; in assay [1] (15 mM, 3 days, 37°), 181.09 µM. For the same compound, the “3DG Conc” value is 56.87 µM in assay [1] (30 mM, 0 day); 183.92 µM in assay [1] (30 mM, 1 day, 37°); 173.60 µM in assay [1] (30 mM, 3 days, 37°).
Consider `CNC[C@H](O)[C@@H](O)[C@H](O)[C@H](O)CO.Cl` [Meglumine-HCl, reference compound], for which the “3DG Conc” value amounted to 17.51 µM in assay [1] (5 mM, 1 day, 37°); 16.27 µM in assay [1] (5 mM, 3 days, 37°); 16.58 µM in assay [1] (15 mM, 1 day, 37°); 17.52 µM in assay [1] (15 mM, 3 days, 37°); 15.39 µM in assay [1] (30 mM, 1 day, 37°); 15.87 µM in assay [1] (30 mM, 3 days, 37°).
Take `NCCC(=O)N[C@@H](Cc1cnc[nH]1)C(=O)O` [Carnosine]: the “3DG Conc” value in assay [1] (2 mM, 1 day, 37°) amounted to 16.85 µM; in assay [1] (2 mM, 3 days, 37°), 15.58 µM; in assay [1] (5 mM, 1 day, 37°), 16.18 µM; in assay [1] (5 mM, 3 days, 37°), 14.58 µM; in assay [1] (6 mM, 1 day, 37°), 15.96 µM; in assay [1] (6 mM, 3 days, 37°), 16.93 µM. Moreover, the “3DG Conc” value in assay [1] (12 mM, 1 day, 37°) is 15.05 µM; in assay [1] (12 mM, 3 days, 37°), 12.37 µM; in assay [1] (15 mM, 1 day, 37°), 16.90 µM; in assay [1] (15 mM, 3 days, 37°), 15.39 µM; in assay [1] (30 mM, 1 day, 37°), 18.45 µM; in assay [1] (30 mM, 3 days, 37°), 13.97 µM.
Take `O=C1O[C@H]([C@@H](O)CO)C(O)=C1O` [Ascorbic Acid]: the “3DG Conc” value is 13.75 µM in assay [1] (5 mM, 1 day, 37°); 11.86 µM in assay [1] (5 mM, 3 days, 37°); 13.99 µM in assay [1] (15 mM, 1 day, 37°); 10.18 µM in assay [1] (15 mM, 3 days, 37°); 17.26 µM in assay [1] (30 mM, 1 day, 37°); 12.64 µM in assay [1] (30 mM, 3 days, 37°).
For `NC[C@H]1CC[C@H](C(=O)O)CC1` [Tranexamic Acid, reference compound], the “3DG Conc” value in assay [1] (5 mM, 0 day) came to 20.96 µM; in assay [1] (5 mM, 1 day, 37°) it was 24.16 µM; in assay [1] (5 mM, 3 days, 37°) it was 22.02 µM; in assay [1] (15 mM, 0 day), 18.06 µM; in assay [1] (15 mM, 1 day, 37°), 18.98 µM; in assay [1] (15 mM, 3 days, 37°), 19.21 µM. Moreover, the “3DG Conc” value in assay [1] (30 mM, 0 day) turned out to be 19.25 µM; in assay [1] (30 mM, 1 day, 37°), 17.42 µM; in assay [1] (30 mM, 3 days, 37°), 16.87 µM.
With Thiamine nitrate, the “3DG Conc” value in assay [1] (5 mM, 1 day, 37°) is 15.87 µM; in assay [1] (5 mM, 3 days, 37°), 16.45 µM; in assay [1] (15 mM, 1 day, 37°), 18.90 µM; in assay [1] (15 mM, 3 days, 37°) it was 14.19 µM; in assay [1] (30 mM, 1 day, 37°), 17.20 µM; in assay [1] (30 mM, 3 days, 37°), 14.85 µM.
Take `N=C(N)NN` [Aminoguanidine]: in assay [3], the “AGEs-associated retinal, neural, arterial, and renal pathologies” value is on record as “reduces”.
Consider `N[C@@H](CCCCNC[C@@H](O)[C@@H](O)[C@H](O)[C@H](O)CO)C(=O)O` [mannitollysine], for which the “urinary or plasma 3DG” value in assay [2] was “reduced”.
On to `Cc1ncc(CO)c(CO)c1O` [Pyridoxine], for which the “3DG Conc” value was determined as 16.32 µM in assay [1] (2 mM, 0 day); 14.82 µM in assay [1] (2 mM, 1 day, 37°); 16.35 µM in assay [1] (2 mM, 3 days, 37°); 16.13 µM in assay [1] (6 mM, 0 day); 16.67 µM in assay [1] (6 mM, 1 day, 37°); 15.83 µM in assay [1] (6 mM, 3 days, 37°). Also, the “3DG Conc” value in assay [1] (12 mM, 0 day) was 15.90 µM; in assay [1] (12 mM, 1 day, 37°), 15.85 µM; in assay [1] (12 mM, 3 days, 37°), 15.44 µM.
As to `Cc1ncc(CO)c(C=O)c1O.Cl` [Pyridoxal-HCl], the “3DG Conc” value worked out at 16.46 µM in assay [1] (2 mM, 0 day); 12.16 µM in assay [1] (2 mM, 1 day, 37°); 16.19 µM in assay [1] (2 mM, 3 days, 37°); 16.02 µM in assay [1] (6 mM, 0 day); 14.57 µM in assay [1] (6 mM, 1 day, 37°); 15.72 µM in assay [1] (6 mM, 3 days, 37°). Further, the “3DG Conc” value in assay [1] (12 mM, 0 day) is 14.80 µM; in assay [1] (12 mM, 1 day, 37°) it was 14.79 µM; in assay [1] (12 mM, 3 days, 37°), 14.99 µM.
On to `Cc1ncc(C[n+]2csc(CCO)c2C)c(N)n1` [Thiamine-HCl], for which the “3DG Conc” value in assay [1] (5 mM, 1 day, 37°) was 16.27 µM; in assay [1] (5 mM, 3 days, 37°), 14.49 µM; in assay [1] (15 mM, 1 day, 37°) it was 14.83 µM; in assay [1] (15 mM, 3 days, 37°), 14.81 µM; in assay [1] (30 mM, 1 day, 37°) it was 17.76 µM; in assay [1] (30 mM, 3 days, 37°), 14.89 µM.
Take `N[C@@H](CCCCNC[C@H](O)[C@@H](O)[C@H](O)[C@H](O)CO)C(=O)O` [sorbitollysine]: the “urinary or plasma 3DG” value in assay [2] is given as “reduced”.
Regarding `CC(C)(CO)[C@@H](O)C(=O)NCCC(=O)[O-].CC(C)(CO)[C@@H](O)C(=O)NCCC(=O)[O-].[Ca+2]` [Calcium Panthenate], the “3DG Conc” value in assay [1] (2.5 mM, 1 day, 37°) was determined as 17.27 µM; in assay [1] (2.5 mM, 3 days, 37°) it was 16.18 µM; in assay [1] (5 mM, 0 day), 21.06 µM; in assay [1] (5 mM, 1 day, 37°), 18.13 µM; in assay [1] (5 mM, 3 days, 37°), 17.96 µM; in assay [1] (7.5 mM, 1 day, 37°), 16.92 µM. The “3DG Conc” value in assay [1] (7.5 mM, 3 days, 37°) turned out to be 15.37 µM; in assay [1] (12.5 mM, 1 day, 37°) it was 18.58 µM; in assay [1] (12.5 mM, 3 days, 37°), 14.57 µM; in assay [1] (15 mM, 0 day), 22.86 µM; in assay [1] (15 mM, 1 day, 37°), 18.84 µM; in assay [1] (15 mM, 3 days, 37°) it was 16.95 µM. In addition, the “3DG Conc” value was found to be 22.09 µM in assay [1] (30 mM, 0 day); 19.56 µM in assay [1] (30 mM, 1 day, 37°); 19.17 µM in assay [1] (30 mM, 3 days, 37°).
